The values below come from patent publication US20180153203A1, “(5R)-(ß-D-GLUCOPYRANOSYLOXY)-1,5-DIHYDRO-2H-PYRROL-2-ONE AS UMAMI MOLECULE” (priority 2015, published 2018).

The test system of assay [1] is sensory panel of 5 to 8 trained persons. Description: Sensory panel tasting of umami intensity in water. As to conditions: for threshold (umami) / threshold (umami), preferably: in water; for Intense umami / No umami / Umami: water, count of tasters on 3-point umami scale. In kind it is in vivo, human. The protocol: (§1) The sensory tests were performed in a sensory panel room at 20-25° C. The sensory panel consisted of 5 to 8 trained persons. The technical tasting was measured versus a control sample. Tasters were asked to judge the different products according to umami intensity on a 3-point scale (no umami, umami and intense umami). Additionally the tasters were asked to objectively describe the prototype with comments.
The stereoisomers have been tested to umami intensity as described in example 7.

For assay [2] the test system is unchanged. Briefly: Sensory panel tasting in 0.2% sodium chloride and 0.04% sugar. In kind it is in vivo, human. The following applies: for Intense umami / No umami / Umami: 0.2% sodium chloride and 0.04% sugar, count of tasters. The protocol:
as §1

Assay [3] has the same test system. Briefly: Sensory panel tasting in 0.2% sodium chloride and 0.04% sugar and 0.08% MSG. The class given is in vivo, human. As to conditions: 0.2% sodium chloride, count of tasters. The protocol:
as §1

Assay [4] has the same test system. Description: Sensory panel tasting in 0.2% sodium chloride and 0.04% sugar and 0.015% IMP + GMP. In kind it is in vivo, human. As to conditions: 0.2% sodium chloride, count of tasters. As for the experimental part:
as §1

For a further assay, the system named is sensory panel. Briefly: Sensory panel tasting of tomato soups. As to conditions: tomato soup. In kind it is in vivo, human. As for the experimental part: (5R)-(β-D-glucopyranosyloxy)-1,5-dihydro-2H-pyrrol-2-one was added at 500 mg/L (500 ppm) to the soups.
The test system of assay [5] is sensory panel of 5 to 8 trained persons. The following applies: comparison value for MSG, no source or test given; cited from earlier work.

Read-outs that look alike come from different tables or passages of the source.

For “(5R)-(β-D-glucopyranosyloxy)-1,5-dihydro-2H-pyrrol-2-one”, the “threshold (umami)” value in assay [1] (corresponding to 250 mg/l) turned out to be 957 µmol/L; in assay [1] (from Table 1), 250 mg/L. The “threshold (umami), preferably” value turned out to be 1914 µmol/L in assay [1] (corresponding to 500 mg/l) and 500 mg/L in assay [1] (from Table 1, 'preferably'). For the same molecule, the Intense umami worked out at 0 in assay [1] (C 100 mg/l); 1 in assay [1] (C 250 mg/l); 1 in assay [1] (C 500 mg/l); 0 in assay [2] (C 200 mg/l); 2 in assay [2] (C 500 mg/l); 5 in assay [3] (C 200 mg/l). In addition, the Intense umami in assay [3] (C 500 mg/l) came out at 3; in assay [4] (C 200 mg/l), 0; in assay [4] (C 500 mg/l) it was 0. Also, the No umami was found to be 5 in assay [1] (C 100 mg/l); 3 in assay [1] (C 250 mg/l); 1 in assay [1] (C 500 mg/l); 3 in assay [2] (C 200 mg/l); 2 in assay [2] (C 500 mg/l); 0 in assay [3] (C 200 mg/l). For the same molecule, the figures for the No umami in assay [3] (C 500 mg/l), in assay [4] (C 200 mg/l) and in assay [4] (C 500 mg/l) were 0, 4 and 3, respectively. The Umami in assay [1] (C 100 mg/l) is listed as 3; in assay [1] (C 250 mg/l), 4; in assay [1] (C 500 mg/l) it was 6; in assay [2] (C 200 mg/l) it was 4; in assay [2] (C 500 mg/l), 3; in assay [3] (C 200 mg/l), 1. The Umami is 3 in assay [3] (C 500 mg/l), 3 in assay [4] (C 200 mg/l) and 4 in assay [4] (C 500 mg/l). In assay [2] (conclusion from Table 2, table 3 and table 4 (salt/sugar base, with MSG, with IMP + GMP)), the umami enhancing property entry is recorded as “shows the umami enhancing property”. Also, the “tomato soups with and without the compound, perceived difference” value with sensory panel (500 mg/L (500 ppm)) is listed as “perceived as significantly different”. For the same molecule, the “savory, umami taste of tomato soups” value in the assay with sensory panel (500 ppm) is “increased significantly”.
As to `O=C1C=C[C@H](O[C@@H]2O[C@H](CO)[C@@H](O)[C@H](O)[C@H]2O)N1` [beta-S, (5S)-(β-D-glucopyranosyloxy)-1,5-dihydro-2H-pyrrol-2-one], in assay [1] (C 100 mg/l), the Intense umami is recorded as 0, the No umami turned out to be 5 and the Umami was 0. Moreover, in assay [1] (C 200 mg/l), the Intense umami turned out to be 0, the No umami came to 5 and the Umami came to 0. Further, in assay [1] (C 500 mg/l), the Intense umami is recorded as 0, the No umami amounted to 4 and the Umami stood at 1.
For the molecule `O=C1C=C[C@H](O[C@H]2O[C@H](CO)[C@@H](O)[C@H](O)[C@H]2O)N1` [alpha-S, (5S)-(α-D-glucopyranosyloxy)-1,5-dihydro-2H-pyrrol-2-one], the Intense umami in assay [1] (C 100 mg/l), in assay [1] (C 250 mg/l) and in assay [1] (C 500 mg/l) was 0 throughout. Besides, the No umami worked out at 5 in assay [1] (C 100 mg/l), 4 in assay [1] (C 250 mg/l) and 5 in assay [1] (C 500 mg/l). Further, the Umami in assay [1] (C 100 mg/l) is reported as 0; in assay [1] (C 250 mg/l) it was 1; in assay [1] (C 500 mg/l), 0.
In assay [1] (C 200 mg/l), `O=C1C=C[C@@H](O[C@H]2O[C@H](CO)[C@@H](O)[C@H](O)[C@H]2O)N1` [alpha-R, (5R)-(α-D-glucopyranosyloxy)-1,5-dihydro-2H-pyrrol-2-one] came in with an Intense umami of 0, a No umami of 5 and a Umami of 0. In assay [1] (C 400 mg/l), this molecule registered an Intense umami of 0, a No umami of 5 and a Umami of 0. In assay [1] (C 800 mg/l), this molecule showed an Intense umami of 0, a No umami of 5 and a Umami of 0.
On to `N[C@@H](CCC(=O)O)C(=O)[O-].[Na+]` [Monosodium glutamat], for which the “threshold (umami)” value in assay [5] is 1500 µmol/L.
